Data: patent publication US9551724B2, “5-fluoro-uracil immunoassay” (SALADAX BIOMEDICAL, INC., priority 2005, dated 2017)

Legend:
Format in all cases: binding, BALB/c mice
[1] = tested on: monoclonal antibody to 3-substituted 5-FU KLH immunogen (example 6b); assay: Indirect competitive microtiter plate immunoassay (ELISA), monoclonal antibody; plate coating 3-substituted BSA conjugate (1:1, example 7b); settings: relative to 5-FU (ratio of IC50 for 5-FU to IC50 of analyte), 3-Substituted KLH Immunogen, plate coating 3-Substituted BSA Conjugate (example 7b)
Protocol: (§1) Ten Female BALB/c mice were immunized i.p. with 100 μg/mouse of 5-FU-KLH prepared in example 5 or with 5-FU-BTG prepared in example 6a, emulsified in Complete Freund's Adjuvant. Mice were boosted once four weeks after the initial injection with 100 μg/mouse of the same immunogens emulsified in Incomplete Freund's Adjuvant. Ten days after the boost test bleeds from each mouse were obtained by orbital bleed. The anti-serum from these test bleeds contained 5-FU antibodies evaluated in Examples 12a, 13, and 14. For monoclonal antibodies ten Female BALB/c mice were immunized i.p. with 100 μg/mouse of 3-substituted 5-FU-KLH prepared in example 6b, emulsified in Complete Freund's Adjuvant. Mice were boosted once four weeks after the initial injection with 100 μg/mouse of the same immunogens emulsified in Incomplete Freund's Adjuvant. Ten days after the boost test bleeds from each mouse were obtained by orbital bleed and these were screened as in examples 12a and 15. To produce monoclonal antibodies starting four days before the fusion (day 0), the mice were injected i.p. with 400 μg (day 3), 200 μg (day 2) and 200 μg (day 1) 3-substituted 5-FU KLH immunogen in PBS on three successive days. Spleen cells were isolated from the selected mice and fused with 2×10^7 SP2/0 cells with 50% polyethylene glycol 1500 according to the method of Coligan, J. E. et al., eds., Current Protocols in Immunology, 2.5.1-2.5.8, (1992), Wiley & Sons, NY. The fused cells were plated on 10 96-well plates in DMEM/F12 supplemented with 20% FetalClone I, 2% L-glutamine (100 mM) and 2% 50×HAT. Two weeks later, the hybridoma supernatant was assayed for the presence of anti-5-FU by ELISA (example 12b). Positive wells were expanded and again screened by the same method. The positive clones were confirmed for 5-FU binding by a competitive ELISA (examples 12a and 15). Clones positive by ELISA were subcloned once or twice by limiting dilution according to the method disclosed in Coligan, J. E. et al., eds., Current Protocols in Immunology, 2.5.8-2.5.17, (1992), Wiley & Sons, NY.
(§2) The ELISA method for measuring 5-FU concentrations was performed in polystyrene microtiter plates (Nunc MaxiSorp C8 or F8 Immunomodules) optimized for protein binding and containing 96 wells per plate. Each well was coated with 5-FU-BSA conjugate (prepared as in example 7b) by adding 300 μL of 5-FU-BSA conjugate at 10 μg/mL in 0.05M sodium bicarbonate, pH=9.6, and incubating for three hours at room temperature. The wells were washed with 0.05M sodium bicarbonate, pH9.6 and then were blocked with 375 μL of 5% sucrose, 0.2% sodium caseinate solution for 30 minutes at room temperature. After removal of the post-coat solution the plates were dried at 37° C. overnight.
(§3) The ELISA method for screening 5-FU antibodies (produced in example 9) was performed with the microtiter plates that were sensitized with 5-FU-BSA as described in examples 7a, 7b and 8. The antibody screening assay was performed by diluting the antisera containing 5-FU antibodies to 1:100, 1:1,000, 1:10,000 and 1:100,000 in phosphate buffered saline containing 0.1% BSA and 0.01% thimerosal. To each well of 5-FU-BSA sensitized wells (prepared in examples 11a, 11b and 10) 100 μL of diluted antibody was added and incubated for 10 minutes at room temperature with shaking. During this incubation antibody binds to the 5-FU-conjugate in the well. The wells of the plates were washed three times with 0.02 M TRIS, 0.9% NaCl, 0.5% Tween-80 and 0.001% Thimerosal, pH 7.8 to remove any unbound antibody. To detect the amount of 5-FU antibody bound to the 5-FU-BSA conjugate in the wells, 100 μL of a goat anti-mouse antibody-HRP enzyme conjugate (Jackson Immunoresearch) diluted 1/2000 in PBS with 0.1% BSA, 0.05% ANS, 0.01% thimerosal, capable of binding specifically with murine immunoglobulins and producing a colored product when incubated with a substrate, were added to each well. […]

[2] = tested on: polyclonal antibody to 1-Substituted 5-FU KLH Immunogen (example 5); assay: Indirect competitive microtiter plate immunoassay (ELISA), antibodies to 5-FU derivative 4 conjugate; plate coating 3-substituted BSA conjugate (10:1, example 7a); settings: relative to 5-FU (ratio of IC50 for 5-FU to IC50 of analyte), 1-Substituted KLH Immunogen, plate coating 3-Substituted BSA Conjugate (10:1 ratio)
Protocol: as §1
as §2, with “7a)” for “7b)”, “400” for “375”
as §3

[3] = tested on: polyclonal antibody to 3-Substituted 5-FU BTG Immunogen (example 6a); assay: Indirect competitive microtiter plate immunoassay (ELISA), antibodies to 5-FU derivative 13 conjugate; plate coating 1-substituted BSA conjugate (20:1, example 8); settings: relative to 5-FU (ratio of IC50 for 5-FU to IC50 of analyte), 3-Substituted BTG Immunogen, plate coating 1-Substituted BSA Conjugate (20:1 ratio)
Protocol: as §1
as §2, with “8)” for “7b)”, “400” for “375”
as §3

With `Cc1c[nH]c(=O)[nH]c1=O` [Thymine, thymine] the Cross-Reactivity [1] was 3.2%, the Cross-Reactivity ([1]; listed as thymine) was “less than 4%” and the Cross-Reactivity [2] was 6.7%. For the same compound, the Cross-Reactivity [3] was 12.0% and the Cross-Reactivity ([3]; listed as thymine) was “about 12%”.

With `O=c1[nH]cc(F)c(=O)[nH]1` [5Fluorouracil, 5-fluoro-uracil] the Cross-Reactivity [1] was 100.0%, the Cross-Reactivity [2] was 100.0% and the Cross-Reactivity [3] was 100.0%.

In the case of `O=c1[nH]c(=O)n(C2CCCO2)cc1F` (stereo not drawn) [Tegafur, tegafur], the Cross-Reactivity [1] is reported as 1.0%, the Cross-Reactivity ([1]; listed as tegafur) is reported as “approximately 1%” and the Cross-Reactivity [2] is reported as 200.0%. For the same compound, the Cross-Reactivity ([2]; listed as tegafur) was 200%, the Cross-Reactivity [3] was 0.5% and the Cross-Reactivity ([3]; listed as tegafur) was “less than 1%”.

`O=c1cc[nH]c(=O)[nH]1` [Uracil, uracil] was tested, and the Cross-Reactivity [1] was 7.3%, the Cross-Reactivity ([1]; listed as uracil) was “less than 8%” and the Cross-Reactivity [2] was 4.0%. The Cross-Reactivity [3] was 7.5% and the Cross-Reactivity ([3]; listed as uracil) was “less than 8%”.

With `Nc1cc[nH]c(=O)n1` [Cytosine, cytosine] the Cross-Reactivity [1] was under 0.01%, the Cross-Reactivity ([1]; listed as cytosine) was “less than 0.01%” and the Cross-Reactivity [2] was under 0.1%. For the same compound, the Cross-Reactivity [3] was under 0.3% and the Cross-Reactivity ([3]; listed as cytosine) was “less than 0.03%”.
